In one experiment the test system is acoustic trauma. Description: protective effect on acoustic trauma (sound overstimulation 6 kHz, 130 dB SPL, 15 minutes). Particulars: 500 μM in perilymph. Type of experiment: in vivo, guinea pigs. Here is the method: The protective effect on acoustic trauma was tested on 10 animals for which a preliminary infusion of artificial perilymph is carried out for 10 minutes. After evaluation of the audiometric thresholds, a second 35 minute infusion either of artificial perilymph alone (5 animals: control group) or of perilymph containing 500 μM riluzole (5 animals) is carried out. Ten minutes after the start of the second infusion, a sound overstimulation (6 kHz, 130 dB SPL) is applied for 15 minutes. Finally, a third infusion of artificial perilymph allows rinsing of the cochlea. The audiometric thresholds are then recorded. The auditory loss for each frequency induced by sound exposure is defined as the difference between the audiometric thresholds recorded before and after the sound over-exposure.

Experiment [1] deals with compound action potential (CAP) of the auditory nerve. Description: acute perifusion of the cochleae: effect of increasing doses on cochlear potentials (CAP). In kind it is in vivo, guinea pigs. An excerpt:
The effect of riluzole in increasing doses was studied according to the technique of acute perifusion of the cochleae:
10 tricolor guinea pigs weighing 200 to 400 g are anesthetized by intraperitoneal injection of urethane (1.4 g/kg) and then trachetomized and artificially ventilated. The external auditory canals are incised for the putting in place of ear bars in a restraining apparatus. During the entire duration of the experiment, the electrocardiogram is monitored and the central temperature regulated by means of a heating cover at 38.5±1° C. The experiments are carried out in a soundproofed, anechoic and faradized chamber. Access to the cochlea is obtained via a ventral approach. After opening of the tympanic bulla, 3 holes 0.2 mm in diameter are manually cut in the basal turn of the cochlea: the first in the tympanic ramp to receive an infusion pipette, the second in the vestibular ramp to allow the outflow of the infused solutions out of the cochlea and the third also in the vestibular ramp to receive a recording electrode.
The cochlear potentials recorded in the vestibular ramp are stored and then numerically filtered to dissociate the compound action potential (CAP), a control for the activity of the auditory nerve and the receptor potentials obtained from the ciliated cells, namely the microphonic potential (MP) and the summation potential (SP). A low-pass filter of 2.5 kHz is used to extract the CAP whose amplitude is measured between N1 (1st negative wave) and P1 (1st positive wave) as well as the SP measured between 0 and 5 ms. A band-pass filter around 8 kHz (acoustic stimulation frequency) is used to extract the MP (6-10 kHz, filter slope: 48 db/octave).
After introducing the pipette (about 0.1 mm in diameter at the tip) into the tympanic ramp with the aid of a micromanipulator, leaktightness being provided by means of a glue ball placed near the tip, artificial perilymph is infused at the rate of 2.5 μl/min. A second infusion of artificial perilymph containing 0.1% dimethyl sulfoxide is carried out. […] These cochlear potentials are recorded immediately after each infusion. The duration of the infusions is 10 minutes.
The IC50 is observed for a dose of 300 μM (FIG. 2). In all the animals, a complete disappearance of the CAP is obtained for a dose of 500 μM.

Where [2] appears, read: cumulative increasing doses 50 to 500 μM, intracochlear infusion.

Data on 1 molecule can be found in patent publication US6660757B2, “Use of riluzole in the treating acoustic traumas” (Aventis Pharmaceuticals Inc., priority 1998, dated 2003).

Regarding `Nc1nc2ccc(OC(F)(F)F)cc2s1` [riluzole, 2-amino-6-trifluoromethoxy-benzothiazole], in the experiment with acoustic trauma (35 minute infusion, frequencies of between 8 and 16 kHz), the “auditory losses after sound overstimulation versus control group” value is “control group exhibits, for frequencies of between 8 and 16 kHz, much higher auditory losses”. Besides, in the experiment with acoustic trauma (after sound overstimulation), the “histological study of the cochleae by electron microscopy: innervation” value is given as “virtually normal innervation”. The IC50 (as a rule, the point on the concentration scale where inhibition reaches its midpoint) in experiment [1] (Cavia porcellus, 10 min, intracochlear infusion of cumulative increasing doses 50 to 500 μM in artificial perilymph with 0.1% dimethyl sulfoxide, 10 minutes each, read-out: IC50 for reduction of the amplitude of the compound action potential (CAP)) stood at 300 µM. Moreover, in experiment [1] (setting [2]), the “effect on CAP of the auditory nerve” value is recorded as “reduction in the compound action potential (CAP) of the auditory nerve dependant on the dose” and the “effect on latency N1 of the CAP” value is “increase in the latency N1”. The “dose for complete disappearance of the CAP” value in experiment [1] (intracochlear infusion, in all the animals) amounted to 500 µM.
